Key:
Type in all cases: in vivo
[1] = test system: Yellow Fever Mosquito (Aedes aegypti, AEDSAE); settings: Yellow Fever Mosquito, Table ABC / ABC-DP rating
How it was run: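 Compounds from DMSO master plates (4000 ppm stock) diluted in 90:10 water/acetone, then dispensed into six replicate plates and infested with ~1-day-old Aedes aegypti larvae in liver-powder water. Held covered at room temperature for 3 days; each well scored for larval mortality and graded on a rating scale.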

[2] = test system: Cabbage Looper (Trichoplusia ni, TRIPNI); test: Bioassays on Cabbage Looper (CL), 128-well diet tray assay; settings: Trichoplusia ni; Cabbage Looper, Table ABC / ABC-DP rating; read-out: CL rating
How it was run: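 Diet tray, 2nd instar, 1–5 larvae/well; 50 μg/cm^2 compound surface-applied (acetone:water 90:10), dried; 8 wells/treatment; 25° C, 14:10 L:D, 5–7 d; % mortality, mean of 8 wells.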

[3] = test system: Beet Armyworm (Spodoptera exigua, LAPHEG); test: Bioassays on Beet Armyworm (BAW), 128-well diet tray assay; settings: Spodoptera exigua; Beet Armyworm, Table ABC / ABC-DP rating; read-out: BAW rating
How it was run: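 Diet-overlay assay: 50 μg/cm^2 compound applied in 90:10 acetone-water to artificial diet, allowed to dry, then infested with 1–5 L2 larvae/well; 8 wells/compound; covered, vented; 25° C., 14:10 L:D, 5–7 d; % mortality per well, averaged.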

Row | SMILES | YFM rating [1] | pest or weed control at 50 µg/cm2 [2] | pest or weed control at 50 µg/cm2 [3]
1 | O=C(CCC(F)(F)F)Nc1c(F)ccc(NC(=O)c2cc(NC(=O)[C@H]3[C@H](c4ccc(F)c(Cl)c4)C3(Cl)Cl)ccc2Cl)c1F [F1848, 2-Chloro-5-((1R,3R)-2,2-dichloro-3-(3-chloro-4-fluorophenyl)cyclopropane-1-carboxamido)-N-(2,4-difluoro-3-(4,4,4-trifluorobutanamido)phenyl)benzamide] | A (80–100) | 50 to 100% | 50 to 100%
2 | CC(Br)CC(=O)Nc1c(F)ccc(NC(=O)c2cc(NC(=O)[C@H]3[C@H](c4ccc(F)c(C(F)(F)F)c4)C3(Cl)Cl)ccc2Cl)c1F (stereo partly drawn) [F1853, N-(3-(3-Bromobutanamido)-2,4-difluorophenyl)-2-chloro-5-((1R,3R)-2,2-dichloro-3-(4-fluoro-3-(trifluoromethyl)phenyl)cyclopropane-1-carboxamido)benzamide] | A (80–100) | 50 to 100% | 50 to 100%
3 | O=C(CCC1CC1)Nc1c(F)ccc(NC(=O)c2cc(NC(=O)[C@H]3[C@H](c4ccc(F)c(C(F)(F)F)c4)C3(Cl)Cl)ccc2Cl)c1F [F1854, 2-Chloro-N-(3-(3-cyclopropylpropanamido)-2,4-difluorophenyl)-5-((1R,3R)-2,2-dichloro-3-(4-fluoro-3-(trifluoromethyl)phenyl)cyclopropane-1-carboxamido)benzamide] | A (80–100) | 50 to 100% | 50 to 100%
4 | CC(C)(C)CCCC(=O)Nc1c(F)ccc(NC(=O)c2cc(NC(=O)[C@H]3[C@H](c4ccc(F)c(C(F)(F)F)c4)C3(Cl)Cl)ccc2Cl)c1F [F1856, 2-Chloro-5-((1R,3R)-2,2-dichloro-3-(4-fluoro-3-(trifluoromethyl)phenyl)cyclopropane-1-carboxamido)-N-(3-(5,5-dimethylhexanamido)-2,4-difluorophenyl)benzamide] | B (More than 0 – Less than 80) | 50 to 100% | 50 to 100%
5 | C#CCCCC(=O)Nc1c(F)ccc(NC(=O)c2cc(NC(=O)[C@H]3[C@H](c4ccc(F)c(C(F)(F)F)c4)C3(Cl)Cl)ccc2Cl)c1F [F1857] | A (80–100) | 50 to 100% | 50 to 100%
6 | O=C(CCC(F)(OC(F)(F)F)C(F)(F)F)Nc1c(F)ccc(NC(=O)c2cc(NC(=O)[C@H]3[C@H](c4ccc(F)c(C(F)(F)F)c4)C3(Cl)Cl)ccc2Cl)c1F (stereo partly drawn) [F1858, 2-Chloro-5-((1R,3R)-2,2-dichloro-3-(4-fluoro-3-(trifluoromethyl)phenyl)cyclopropane-1-carboxamido)-N-(2,4-difluoro-3-(4,5,5,5-tetrafluoro-4-(trifluoromethoxy)pentanamido)phenyl)benzamide] | A (80–100) | 50 to 100% | 50 to 100%
7 | CC(CC(F)(F)F)C(=O)Nc1c(F)ccc(NC(=O)c2cc(NC(=O)[C@H]3[C@H](c4ccc(F)c(Cl)c4)C3(Cl)Cl)ccc2Cl)c1F (stereo partly drawn) [F1866, 2-Chloro-5-((1R,3R)-2,2-dichloro-3-(3-chloro-4-fluorophenyl)cyclopropane-1-carboxamido)-N-(2,4-difluoro-3-(4,4,4-trifluoro-2-methylbutanamido)phenyl) benzamide] | A (80–100) | 50 to 100% | 50 to 100%
8 | C/C=C/C(=O)Nc1c(F)ccc(NC(=O)c2cc(NC(=O)[C@H]3[C@H](c4ccc(F)c(C(F)(F)F)c4)C3(Cl)Cl)ccc2Cl)c1F [F1868, N-(3-((E)-But-2-enamido)-2,4-difluorophenyl)-2-chloro-5-((1R,3R)-2,2-dichloro-3-(4-fluoro-3-(trifluoromethyl)phenyl)cyclopropane-1-carboxamido)benzamide] | A (80–100) | 50 to 100% | 50 to 100%
9 | O=C(/C=C/C(F)(F)F)Nc1c(F)ccc(NC(=O)c2cc(NC(=O)[C@H]3[C@H](c4ccc(F)c(C(F)(F)F)c4)C3(Cl)Cl)ccc2Cl)c1F [F1869, 2-Chloro-5-((1R,3R)-2,2-dichloro-3-(4-fluoro-3-(trifluoromethyl)phenyl)cyclopropane-1-carboxamido)-N-(2,4-difluoro-3-((E)-4,4,4-trifluorobut-2-enamido)phenyl)benzamide] | A (80–100) | 50 to 100% | 50 to 100%
10 | C=C(F)C(=O)Nc1c(F)ccc(NC(=O)c2cc(NC(=O)[C@H]3[C@H](c4ccc(F)c(C(F)(F)F)c4)C3(Cl)Cl)ccc2Cl)c1F [F1870, 2-Chloro-5-((1R,3R)-2,2-dichloro-3-(4-fluoro-3-(trifluoromethyl)phenyl)cyclopropane-1-carboxamido)-N-(2,4-difluoro-3-(2-fluoroacrylamido)phenyl)benzamide] | A (80–100) | 50 to 100% | 50 to 100%
11 | C=CCC(=O)Nc1c(F)ccc(NC(=O)c2cc(NC(=O)[C@H]3[C@H](c4ccc(F)c(C(F)(F)F)c4)C3(Cl)Cl)ccc2Cl)c1F [F1874, N-(3-(But-3-enamido)-2,4-difluorophenyl)-2-chloro-5-((1R,3R)-2,2-dichloro-3-(4-fluoro-3-(trifluoromethyl)phenyl)cyclopropane-1-carboxamido)benzamide] | A (80–100) | 50 to 100% | 50 to 100%
12 | C=CCC(=O)Nc1c(F)ccc(NC(=O)c2cc(NC(=O)[C@H]3[C@H](c4ccc(F)c(Cl)c4)C3(Cl)Cl)ccc2Cl)c1F [F1876, N-(3-(But-3-enamido)-2,4-difluorophenyl)-2-chloro-5-((1R,3R)-2,2-dichloro-3-(3-chloro-4-fluorophenyl)cyclopropane-1-carboxamido)benzamide] | A (80–100) | 50 to 100% | 50 to 100%
13 | C=CCC(=O)Nc1c(F)ccc(NC(=O)c2cc(NC(=O)[C@H]3[C@H](c4cccc(C(F)(F)F)c4)C3(Cl)Cl)ccc2Cl)c1F [F1878, N-(3-(But-3-enamido)-2,4-difluorophenyl)-2-chloro-5-((1R,3R)-2,2-dichloro-3-(3-(trifluoromethyl)phenyl)cyclopropane-1-carboxamido)benzamide] | A (80–100) | 50 to 100% | 50 to 100%
14 | C=CCC(=O)Nc1c(F)ccc(NC(=O)c2cc(NC(=O)[C@H]3[C@H](c4cc(F)cc(C(F)(F)F)c4)C3(Cl)Cl)ccc2Cl)c1F [F1879, N-(3-(But-3-enamido)-2,4-difluorophenyl)-2-chloro-5-((1R,3R)-2,2-dichloro-3-(3-fluoro-5-(trifluoromethyl)phenyl)cyclopropane-1-carboxamido)benzamide] | A (80–100) | 50 to 100% | 50 to 100%
15 | O=C(NCC(F)(F)F)c1cc(NC(=O)C2C(c3cc(Br)cc(S(F)(F)(F)(F)F)c3)C2(Cl)Cl)ccc1Cl (stereo not drawn) [F2009, cis-5-(3-(3-Bromo-5-(pentafluoro-λ^6-sulfanyl)phenyl)-2,2-dichiorocyclopropane-1-carboxamido)-2-chloro-N-(2,2,2-trifluoroethyl)benzamide] | A (80–100) | 50 to 100% | 50 to 100%
16 | O=C(CCNC(=O)c1cc(NC(=O)C2C(c3cc(Cl)cc(Cl)c3)C2(Cl)Cl)ccc1Cl)NCC(F)(F)F [F2079, trans-2-Chloro-5-((1R,3R)-2,2-dichloro-3-(3,5-dichlorophenyl)cyclopropane-1-carboxamido)-N-(3-oxo-3-(2,2,2-trifluoroethylamino)propyl)benzamide] | A (80–100) | 50 to 100% | 50 to 100%
17 | O=C(NCC(F)(F)C(F)(F)F)c1cc(NC(=O)[C@H]2[C@H](c3ccc(F)c(C(F)(F)F)c3)C2(Cl)Cl)c(F)cc1Cl [F2085, 2-Chloro-5-((1R,3R)-2,2-dichloro-3-(4-fluoro-3-(trifluoromethyl)phenyl)cyclopropane-1-carboxamido)-4-fluoro-N-(2,2,3,3,3-pentafluoropropyl)benzamide] | A (80–100) | 50 to 100% | 50 to 100%
18 | CC(F)(F)CNC(=O)c1cc(NC(=O)C2C(c3cc(Cl)cc(Cl)c3)C2(Cl)Cl)cc(F)c1Cl (stereo not drawn) [F2087] | A (80–100) | 50 to 100% | 50 to 100%
19 | CN(NC(=O)c1cc(NC(=O)[C@H]2[C@H](c3cc(Cl)cc(Cl)c3)C2(Cl)Cl)ccc1Cl)c1ccccc1 [F2510, (1R,3R)-2,2-Dichloro-N-(4-chloro-3-(2-methyl-2-phenylhydrazine-1-carbonyl)phenyl)-3-(3,5-dichlorophenyl)cyclopropane-1-carboxamide] | A (80–100) | 50 to 100% | 50 to 100%
20 | CN(NC(=O)c1cc(NC(=O)[C@H]2[C@H](c3cc(Cl)c(Cl)c(Cl)c3)C2(Cl)Cl)ccc1Cl)c1ccccc1 [F2511, (1R,3R)-2,2-Dichloro-N-(4-chloro-3-(2-methyl-2-phenylhydrazine-1-carbonyl)phenyl)-3-(3,4,5-trichlorophenyl)cyclopropane-1-carboxamide] | A (80–100) | 50 to 100% | 50 to 100%
